Experimental data: patent US6479435B1, “Diaryl ethers and processes for their preparation and herbicidal and desiccant compositions containing them” (ISK Americas Incorporated, priority 1997, dated 2002)

What was measured:
Type in all cases: in vivo
[1] = system: field corn (Zea mays L., var. Dekalb 535, CORN); assay: Post-emerge greenhouse test, crop damage rating; details: 14 days after application
Method in brief: (§1)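 Scores use a 0 (no damage) to 100 (complete kill) scale, taken 14 days after a foliar spray. Acetone solutions with 0.25% v/v non-ionic surfactant were applied by track sprayer at 187 l/ha and 63-1000 g ai/ha to bottom-watered 2-3 leaf plants.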

[2] = system: upland rice (Oryza sp., var.Tebonnet, RICE); assay: Post-emerge greenhouse test, crop damage rating; details: 14 days after application
Method in brief: as §1

[3] = system: common ragweed (Ambrosia artemisiifolia L., AMBEL); assay: Post-emerge greenhouse herbicide test, phytotoxicity rating; details: 14 days after application
Method in brief: as §1

[4] = system: soybean (Glycine max L., var. Pella 86, SOY); assay: Pre-emerge greenhouse test, crop damage rating; details: 14 days after application, rating scale 0-100
Method in brief: (§2)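 Visual 0–100 injury rating (100 = all plants dead) taken 14 days after treatment. Rates of 125–1000 g ai/ha in acetone, 187 l/ha, were sprayed onto soil one day post-sowing; pots were surface-watered to incorporate, then bottom-watered.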

[5] = system: common ragweed (Ambrosia artemisiifolia L., AMBEL); assay: Pre-emerge greenhouse herbicide test, phytotoxicity rating; details: 14 days after application, rating scale 0-100
Method in brief: as §2

[6] = system: Johnsongrass (Sorghum halepense, SORHA); assay: as above; details: 14 days after application, rating scale 0-100
Method in brief: as §2

[7] = system: green foxtail (Setaria viridis, SETVI); assay: as above; details: 14 days after application, rating scale 0-100
Method in brief: as §2

[8] = system: lambsquarters (Chenopodium album, CHEAL); assay: as above; details: 14 days after application, rating scale 0-100
Method in brief: as §2

[9] = system: velvetleaf (Abutilon theophrasti, ABUTH); assay: as above; details: 14 days after application, rating scale 0-100
Method in brief: as §2

[10] = system: sicklepod (Cassia obtusifolia, CASOB); assay: as above; details: 14 days after application, rating scale 0-100
Method in brief: as §2

[11] = system: ivyleaf morningglory (Ipomoea hederacea, IPOHE); assay: as above; details: 14 days after application, rating scale 0-100
Method in brief: as §2

[12] = system: large crabgrass (Digitaria sanguinalis, DIGSA); assay: as above; details: 14 days after application, rating scale 0-100
Method in brief: as §2

[13] = system: redroot pigweed (Amaranthus retroflexus, AMARE); assay: as above; details: 14 days after application, rating scale 0-100
Method in brief: as §2

[14] = system: barnyardgrass (Echinochloa crusgalli, ECHCG); assay: as above; details: 14 days after application, rating scale 0-100
Method in brief: as §2

[15] = system: Johnsongrass (Sorghum halepense, SORHA); assay: Post-emerge greenhouse herbicide test, phytotoxicity rating; details: 14 days after application
Method in brief: as §1

[16] = system: green foxtail (Setaria viridis, SETVI); assay: as above; details: 14 days after application
Method in brief: as §1

[17] = system: lambsquarters (Chenopodium album, CHEAL); assay: as above; details: 14 days after application
Method in brief: as §1

[18] = system: velvetleaf (Abutilon theophrasti, ABUTH); assay: as above; details: 14 days after application
Method in brief: as §1

[19] = system: ivyleaf morningglory (Ipomoea hederacea, IPOHE); assay: as above; details: 14 days after application
Method in brief: as §1

[20] = system: large crabgrass (Digitaria sanguinalis, DIGSA); assay: as above; details: 14 days after application
Method in brief: as §1

[21] = system: redroot pigweed (Amaranthus retroflexus, AMARE); assay: as above; details: 14 days after application
Method in brief: as §1

[22] = system: barnyardgrass (Echinochloa crusgalli, ECHCG); assay: as above; details: 14 days after application
Method in brief: as §1

[23] = system: field corn (Zea mays L., var. Dekalb 535, CORN); assay: Pre-emerge greenhouse test, crop damage rating; details: 14 days after application, rating scale 0-100
Method in brief: as §2

[24] = system: upland rice (Oryza sp., var.Tebonnet, RICE); assay: Pre-emerge greenhouse test, crop damage rating; details: 14 days after application, rating scale 0-100
Method in brief: as §2

[25] = system: soybean (Glycine max L., var. Pella 86, SOY); assay: Post-emerge greenhouse test, crop damage rating; details: 14 days after application
Method in brief: as §1

Cn1nc(-c2cc(Oc3ncccc3C#N)c(Cl)cc2F)c(Cl)c1C(F)(F)F [Compound 1-3]
10: CORN crop damage rating (0-100) ([1]; 500 g al/ha) | IPOHE phytotoxicity rating (0-100) ([19]; 500 g al/ha)
40: phytotoxicity rating SORHA ([6]; 500 g ai/ha) | crop damage rating CORN ([23]; 500 g ai/ha)
90: phytotoxicity rating CHEAL ([8]; 125 g ai/ha) | SETVI phytotoxicity rating (0-100) ([16]; 500 g al/ha) | IPOHE phytotoxicity rating (0-100) ([19]; 63 g al/ha) | SOY crop damage rating (0-100) ([25]; 500 g al/ha)
80: AMBEL phytotoxicity rating (0-100) ([3]; 500 g al/ha) | phytotoxicity rating CASOB ([10]; 500 g ai/ha) | SORHA phytotoxicity rating (0-100) ([15]; 500 g al/ha) | DIGSA phytotoxicity rating (0-100) ([20]; 500 g al/ha)
95: crop damage rating SOY ([4]; 500 g ai/ha) | phytotoxicity rating SETVI ([7]; 125 g ai/ha) | CHEAL phytotoxicity rating (0-100) ([17]; 63 g al/ha)
0: CORN crop damage rating (0-100) ([1]; 63 g al/ha) | AMBEL phytotoxicity rating (0-100) ([3]; 63 g al/ha) | crop damage rating SOY ([4]; 125 g ai/ha) | phytotoxicity rating SORHA ([6]; 125 g ai/ha) | phytotoxicity rating ABUTH ([9]; 500 g ai/ha) | phytotoxicity rating CASOB ([10]; 125 g ai/ha) | phytotoxicity rating IPOHE ([11]; 125 g ai/ha) | phytotoxicity rating DIGSA ([12]; 500 g ai/ha) | phytotoxicity rating ECHCG ([14]; 125 g ai/ha) | SETVI phytotoxicity rating (0-100) ([16]; 63 g al/ha) | DIGSA phytotoxicity rating (0-100) ([20]; 63 g al/ha) | ECHCG phytotoxicity rating (0-100) ([22]; 63 g al/ha) | crop damage rating CORN ([23]; 125 g ai/ha) | crop damage rating RICE ([24]; 125 g ai/ha)
70: RICE crop damage rating (0-100) ([2]; 500 g al/ha) | ABUTH phytotoxicity rating (0-100) ([18]; 63 g al/ha) | ECHCG phytotoxicity rating (0-100) ([22]; 500 g al/ha)
30: phytotoxicity rating IPOHE ([11]; 500 g ai/ha) | crop damage rating RICE ([24]; 500 g ai/ha) | SOY crop damage rating (0-100) ([25]; 63 g al/ha)
100: phytotoxicity rating CHEAL ([8]; 500 g ai/ha) | phytotoxicity rating AMARE ([13]; 125 g ai/ha) | phytotoxicity rating AMARE ([13]; 500 g ai/ha) | phytotoxicity rating ECHCG ([14]; 500 g ai/ha) | CHEAL phytotoxicity rating (0-100) ([17]; 500 g al/ha) | ABUTH phytotoxicity rating (0-100) ([18]; 500 g al/ha) | AMARE phytotoxicity rating (0-100) ([21]; 63 g al/ha) | AMARE phytotoxicity rating (0-100) ([21]; 500 g al/ha)
50: phytotoxicity rating AMBEL ([5]; 125 g ai/ha) | phytotoxicity rating AMBEL ([5]; 500 g ai/ha)
20: RICE crop damage rating (0-100) ([2]; 63 g al/ha) | phytotoxicity rating ABUTH ([9]; 125 g ai/ha) | phytotoxicity rating DIGSA ([12]; 125 g ai/ha) | SORHA phytotoxicity rating (0-100) ([15]; 63 g al/ha)

N#Cc1ccccc1Oc1cc(-n2c(=O)n3n(c2=S)CCCC3)c(F)cc1Cl [Compound 8-7]
10: RICE crop damage rating (0-100) ([2]; 63 g al/ha) | crop damage rating CORN ([23]; 500 g ai/ha)
70: phytotoxicity rating AMBEL ([5]; 125 g ai/ha) | phytotoxicity rating SORHA ([6]; 500 g ai/ha) | phytotoxicity rating SETVI ([7]; 125 g ai/ha) | phytotoxicity rating CASOB ([10]; 125 g ai/ha) | SORHA phytotoxicity rating (0-100) ([15]; 500 g al/ha) | SOY crop damage rating (0-100) ([25]; 500 g al/ha)
99: phytotoxicity rating DIGSA ([12]; 500 g ai/ha)
50: RICE crop damage rating (0-100) ([2]; 500 g al/ha) | DIGSA phytotoxicity rating (0-100) ([20]; 500 g al/ha) | crop damage rating RICE ([24]; 500 g ai/ha)
0: CORN crop damage rating (0-100) ([1]; 500 g al/ha) | crop damage rating SOY ([4]; 125 g ai/ha) | SORHA phytotoxicity rating (0-100) ([15]; 63 g al/ha) | SETVI phytotoxicity rating (0-100) ([16]; 63 g al/ha) | SETVI phytotoxicity rating (0-100) ([16]; 500 g al/ha) | DIGSA phytotoxicity rating (0-100) ([20]; 63 g al/ha) | ECHCG phytotoxicity rating (0-100) ([22]; 63 g al/ha) | crop damage rating CORN ([23]; 125 g ai/ha)
60: AMBEL phytotoxicity rating (0-100) ([3]; 63 g al/ha) | phytotoxicity rating DIGSA ([12]; 125 g ai/ha)
100: phytotoxicity rating AMBEL ([5]; 500 g ai/ha) | phytotoxicity rating CHEAL ([8]; 125 g ai/ha) | phytotoxicity rating CHEAL ([8]; 500 g ai/ha) | phytotoxicity rating ABUTH ([9]; 125 g ai/ha) | phytotoxicity rating ABUTH ([9]; 500 g ai/ha) | phytotoxicity rating CASOB ([10]; 500 g ai/ha) | phytotoxicity rating IPOHE ([11]; 500 g ai/ha) | phytotoxicity rating AMARE ([13]; 500 g ai/ha) | phytotoxicity rating ECHCG ([14]; 125 g ai/ha) | phytotoxicity rating ECHCG ([14]; 500 g ai/ha) | CHEAL phytotoxicity rating (0-100) ([17]; 500 g al/ha) | ABUTH phytotoxicity rating (0-100) ([18]; 63 g al/ha) | ABUTH phytotoxicity rating (0-100) ([18]; 500 g al/ha) | IPOHE phytotoxicity rating (0-100) ([19]; 63 g al/ha) | IPOHE phytotoxicity rating (0-100) ([19]; 500 g al/ha) | AMARE phytotoxicity rating (0-100) ([21]; 63 g al/ha) | AMARE phytotoxicity rating (0-100) ([21]; 500 g al/ha)
30: phytotoxicity rating IPOHE ([11]; 125 g ai/ha)
80: AMBEL phytotoxicity rating (0-100) ([3]; 500 g al/ha)
90: phytotoxicity rating SETVI ([7]; 500 g ai/ha) | phytotoxicity rating AMARE ([13]; 125 g ai/ha) | CHEAL phytotoxicity rating (0-100) ([17]; 63 g al/ha)
20: CORN crop damage rating (0-100) ([1]; 63 g al/ha) | crop damage rating SOY ([4]; 500 g ai/ha) | phytotoxicity rating SORHA ([6]; 125 g ai/ha) | ECHCG phytotoxicity rating (0-100) ([22]; 500 g al/ha) | crop damage rating RICE ([24]; 125 g ai/ha) | SOY crop damage rating (0-100) ([25]; 63 g al/ha)
